# Test results taken from patent US20180344725A1, “QUINOLONE CHALCONE COMPOUNDS AND USES THEREOF” (priority 2015, published 2018).
# Columns and labels:
# MDA-MB-231 = experiment: SRB-based cytotoxicity assay; assay type: cell-based, human
# Experimental: (§1) For (anti)proliferation assays, 4,000-5,000 cells/well of the 96-well clustered dish were incubated for 16 hours, as described previously (Hu et al., 2008; Skehan et al., 1990). After 16 hours, culture medium was replaced with fresh medium containing different dilutions of test compounds dissolved in DMSO. Some wells were treated with 100 μl of 10% trichloroacetic acid (TCA) as a negative control and sham (medium with dimethyl sulfoxide; DMSO) treated cells were used as a positive control. After 72 hours post-incubation, medium was removed and cells were fixed with 10% TCA at 4° C. for 1 hour. TCA was removed and cells were washed with cold tap water, and plate was air-dried, followed by addition of 50 μl of 0.4% SRB staining solution to each well. After 30 minutes incubation, SRB staining solution was removed. Cells were washed with 1% acetic acid solution, and then washed with tap water to remove unbound staining solution, followed by air-drying. 200 μl of 10 mM (pH10.5) trizma base buffer was added to each well to solubilise macromolecules. SRB stained macromolecules were determined at a 540 nm wavelength using an automated plate reader (Synergy H4 Hybrid Multi-Mode Microplate Reader, BioTek, Winooski, Vt.). Cell growth (inhibition) was calculated by the following formula:
# (§2) % cells proliferation=[(AT−CT)/(ST−CT)]×100
# (§3) wherein AT=absorbance of treated cells, CT=absorbance of negative control cells, and ST=absorbance of sham treated cells. IC50 values were calculated from sigmoidal dose-response curves generated by two independent biological replicates, with quadruplicate in each set by using Graph Pad Prism v.5.04 software. […] The combinational index (CI) was calculated as described previously (Chou 2006). If the CI values were less than, equal to or more than 1, it indicates a synergistic, additive or antagonistic effect respectively (Chou 2006). CI values were determined from four independent experiments.
# MCF-7 = experiment: SRB-based cytotoxicity assay; assay type: cell-based, human
# Experimental: as §1, §2, §3
# RPMI-8226 (myeloma) = experiment: SRB-based cytotoxicity assay; assay type: cell-based; conditions: Homo sapiens, 72 hours, Table 4
# Experimental: as §1, §2, §3
# MCF-10A = experiment: SRB-based cytotoxicity assay; assay type: cell-based; conditions: Homo sapiens, MCF-10A; MCF10A non-cancer; 72 hours; Table 4
# Experimental: as §1, §2, §3
# HeLa = experiment: SRB-based cytotoxicity assay; assay type: cell-based; conditions: Homo sapiens; HeLa; 72 hours; Table 4
# Experimental: as §1, §2, §3
# 184B5 = experiment: SRB-based cytotoxicity assay; assay type: cell-based; conditions: 184B5 non-cancer
# Experimental: as §1, §2, §3
# MDA-MB-468 = experiment: SRB-based cytotoxicity assay; assay type: cell-based, human; conditions: MDA-MB-468, SRB, Table 2
# Experimental: as §1, §2, §3
# MDA-MB231TaxR = experiment: SRB-based cytotoxicity assay, single and combination with paclitaxel; assay type: cell-based; conditions: TaxR selected in 100.0 nM paclitaxel
# Experimental: All of the cell lines used were purchased from ATCC and cultured in RPMI-1640 supplemented with 10% fetal bovine serum and antibiotics (100 units penicillin/100 μg/ml streptomycin), unless stated otherwise. 1845B5 and MCF-10A non-cancer breast cell lines were cultured in DME/F12 medium supplemented with 10% fetal bovine serum, antibiotics and growth factors. […] The human small cell lung carcinoma H69 cell line and its multidrug-resistant MRP1-overexpressing isogenic H69AR cell line were purchased from ATCC. […] H69 cells grow as large multi-cell aggregates, making it difficult to accurately count cell numbers. […] The IL-6 dependent bortezomib-resistant ANBL6-BR cell line was further supplemented with 1 ng/ml of IL-6. The MCF10AT1 and MCF10CA1a cell lines are isogenic to the MCF10A cell line, and obtained from Dr. Valerie Weaver at the Center for Bioengineering and Tissue Regeneration, UCSF, CA, USA. MCF10AT1 is a premalignant cell line generated by transforming MCF10A with c-Ha-Ras; and MCF10CA1a was isolated by selecting malignant cells after MCF10AT1 cells were engrafted into mice (Liu & Lin 2004; […] et al. 2009). […] The drug-resistant cells were cultured in the absence of drug for at least one passage before carrying out experiments. All cells were maintained in a humidified incubator at 37° C. […] Cell line authentication was performed using short tandem repeat (STR) profiling. For (anti)proliferation assays, 4,000-5,000 cells/well of the 96-well clustered dish were incubated for 16 hours, as described previously (Hu et al., 2008; Skehan et al., 1990). […] Some wells were treated with 100 μl of 10% trichloroacetic acid (TCA) as a negative control and sham (medium with dimethyl sulfoxide; DMSO) treated cells were used as a positive control. […] TCA was removed and cells were washed with cold tap water, and plate was air-dried, followed by addition of 50 μl of 0.4% SRB staining solution to each well. After 30 minutes incubation, SRB staining solution was removed. Cells were washed with 1% acetic acid solution, and then washed with tap water to remove unbound staining solution, followed by air-drying. 200 μl of 10 mM (pH10.5) trizma base buffer was added to each well to solubilise macromolecules. […] Cell growth (inhibition) was calculated by the following formula: % cells proliferation=[(AT-CT)/(ST-CT)]×100 wherein AT=absorbance of treated cells, CT=absorbance of negative control cells, and ST=absorbance of sham treated cells. […] The combinational index (CI) was calculated as described previously (Chou 2006). […] CI values were determined from four independent experiments.
# RPMI-8226BTZR = experiment: Killing of bortezomib-resistant multiple myeloma cells; assay type: cell-based
# Description: The RPMI-8226BTZR over-expresses β1, β2 and β5 peptides of the 20S subunit. […] However, RPMI-8226BTZR is sensitive to CTR-20, CTR-21 and CTR-32 (FIG. 36).
# [1] = Homo sapiens, 72 hours, Table 4
Compound,IC50 (MCF-10A),IC50 (184B5; [1]),also measured
"CN(C)CC[C@H](CSc1ccccc1)Nc1ccc(S(=O)(=O)NC(=O)c2ccc(N3CCN(Cc4ccccc4-c4ccc(Cl)cc4)CC3)cc2)cc1[N+](=O)[O-] [ABT-737, reference compound]",,,"Cell survival rate (MDA-MB-231; single agent 3.125 μM, MDA-MB231): 98.61 ± 3.93; Cell survival rate (MDA-MB-231; single agent 6.25 μM, MDA-MB231): 91.01 ± 9.81"
COc1ccccc1C(=O)/C=C/c1cc2cc(C)c(C)cc2[nH]c1=O [CTR-23],1120 ± 40 nM,1320 ± 30 nM,"IC50 (MDA-MB-231; Homo sapiens, MDA-MB-231, MDA-MB231, 72 hours, Table 4): 1520 ± 120 nM; IC50 (MCF-7; Homo sapiens, MCF7, 72 hours, Table 4): 500 ± 100 nM; IC50 (RPMI-8226 (myeloma)): 1410 ± 150 nM; IC50 (HeLa): 640 ± 50 nM"
COc1cc2cc(/C=C/C(=O)c3ccccc3OC)c(=O)[nH]c2cc1OC [CTR-24],2100 ± 390 nM,2370 ± 190 nM,
"COc1cccc(OC)c1C(=O)/C=C/c1cc2ccccc2[nH]c1=O [CTR-25, (E)-3-(3-(2,6-dimethoxyphenyl)-3-oxoprop-1-enyl)quinolin-2(1H)-one]",2640 ± 150 nM,2640 ± 170 nM,
COc1ccc(OC)c(C(=O)/C=C/c2cc3ccccc3[nH]c2=O)c1 [CTR-26],910 ± 30 nM,770 ± 110 nM,
COc1ccc(C(=O)/C=C/c2cc3ccccc3[nH]c2=O)c(OC)c1 [CTR-27],2520 ± 30 nM,2800 ± 180 nM,"IC50 (MDA-MB-231; MDA-MB231, 72 hours, Table 4): 2690 ± 240 nM"
COc1ccc(F)cc1C(=O)/C=C/c1cc2ccccc2[nH]c1=O [CTR-29],270 ± 50 nM,280 ± 10 nM,
COc1cc(F)ccc1C(=O)/C=C/c1cc2ccccc2[nH]c1=O [CTR-30],2790 ± 590 nM,2460 ± 140 nM,
COc1ccc(OC)c(C(=O)/C=C/c2cc3cc(OC)ccc3[nH]c2=O)c1 [CTR-34],980 ± 40 nM,1160 ± 100 nM,
COc1ccc(C(=O)/C=C/c2cc3cc(OC)ccc3[nH]c2=O)c(OC)c1 [CTR-35],2880 ± 540 nM,4290 ± 60 nM,
COc1ccc2[nH]c(=O)c(/C=C/C(=O)c3ccc(OC(F)(F)F)cc3OC)cc2c1 [CTR-36],1350 ± 160 nM,1840 ± 70 nM,
COc1ccc2[nH]c(=O)c(/C=C/C(=O)c3cc(F)ccc3OC)cc2c1 [CTR-37],460 ± 110 nM,440 ± 20 nM,
COc1ccc2[nH]c(=O)c(/C=C/C(=O)c3ccc(F)cc3OC)cc2c1 [CTR-38],110 nM,160 ± 20 nM,
"CCOc1ccccc1C(=O)/C=C/c1cc2cc(OC)ccc2[nH]c1=O [CTR-40, (E)-3-(3-(2-ethoxyphenyl)-3-oxoprop-1-enyl)-6-methoxyquinolin-2(1H)-one]",70 nM,100 ± 10 nM,
"CCN(CC)CCCC(C)Nc1ccnc2cc(Cl)ccc12 (stereo not shown) [Chloroquine, reference compound]",,,"IC50 (MDA-MB-231; Homo sapiens, MDA-MB-231, SRB, Table 2): 22500 nM; IC50 (MDA-MB-468; Homo sapiens): 28600 nM; IC50 (MCF-7; Homo sapiens, MCF7, MCF-7, SRB, Table 2): 38400 nM; IC50 (184B5; Homo sapiens, SRB, Table 2): 76100 nM"
"N.N.[Cl][Pt][Cl] [Cisplatin, reference compound]",,,"IC50 (MDA-MB-231; MDA-MB-231, SRB, Table 2): 23600 nM; IC50 (MDA-MB-468): 31000 nM; IC50 (MCF-7; MCF-7, SRB, Table 2): 25800 nM; IC50 (184B5; SRB, Table 2): 25500 nM"
"COc1cc2c(c(OC)c1OC)-c1ccc(OC)c(=O)cc1[C@@H](NC(C)=O)CC2 [Colchicine, reference compound]",,,killing of MDA-MB231TaxR compared with parental MDA-MB231 (MDA-MB231TaxR): to the same degree as the parental MDA-MB231 cells
"CC(C)C[C@H](NC(=O)[C@H](Cc1ccccc1)NC(=O)c1cnccn1)B(O)O [bortezomib, reference compound]",,,resistance of RPMI-8226BTZR compared to RPMI-8226 parental cells (RPMI-8226BTZR): approximately 28 fold
